From ChEMBL document CHEMBL5214912, “Design, synthesis, and SAR study of novel 4,5-dihydropyrazole-Thiazole derivatives with anti-inflammatory activities for the treatment of sepsis” (Eur J Med Chem, 2021)
The source made the active and inactive calls. No cut-off for these calls is given here.

Tests used:
[1] = test system: RAW264.7; experiment: Inhibition of LPS-induced NO production in mouse RAW264.7 cells at 1 uM pre-incubated for 1 hrs followed by LPS stimulation and measured after 24 hrs; assay type: functional, cell-based; details: time 25.0 hrs
[2] = test system: RAW264.7; experiment: Inhibition of LPS-induced NO production in mouse RAW264.7 cells at 10 uM pre-incubated for 1 hrs followed by LPS stimulation and measured after 24 hrs; assay type: functional, cell-based; details: time 25.0 hrs
[3] = test system: RAW264.7; experiment: Antiinflammatory activity in mouse RAW264.7 cells assessed as inhibition of LPS-induced NO production at 2.5 to 10 uM pre-incubated for 1 hrs followed by LPS stimulation and measured after 24 hrs; assay type: functional, cell-based; details: dose 2.5-10 µM, time 25.0 hrs, DDE = dose-dependent effect
[4] = test system: RAW264.7; experiment: Antiinflammatory activity in mouse RAW264.7 cells assessed as reduction in LPS-induced IL-1beta mRNA expression at 2.5 to 10 uM pre-incubated for 1 hrs followed by LPS stimulation and measured after 24 hrs by qRT-PCR assay; assay type: functional, cell-based; details: dose 2.5-10 µM, time 25.0 hrs, DDE = dose-dependent effect
[5] = test system: RAW264.7; experiment: Antiinflammatory activity in mouse RAW264.7 cells assessed as reduction in LPS-induced TNF-alpha mRNA expression at 2.5 to 10 uM pre-incubated for 1 hrs followed by LPS stimulation and measured after 24 hrs by qRT-PCR assay; assay type: functional, cell-based; details: dose 2.5-10 µM, time 25.0 hrs, DDE = dose-dependent effect
[6] = test system: RAW264.7; experiment: Antiinflammatory activity in mouse RAW264.7 cells assessed as reduction in LPS-induced iNOS protein expression at 2.5 to 10 uM pre-incubated for 1 hrs followed by LPS stimulation and measured after 24 hrs by western blotting method; assay type: functional, cell-based; details: dose 2.5-10 µM, time 25.0 hrs
[7] = test system: RAW264.7; experiment: Antiinflammatory activity in mouse RAW264.7 cells assessed as reduction in LPS-induced COX-2 protein expression at 2.5 to 10 uM pre-incubated for 1 hrs followed by LPS stimulation and measured after 24 hrs by western blotting method; assay type: functional, cell-based; details: dose 2.5-10 µM, time 25.0 hrs
[8] = test system: RAW264.7; experiment: Antiinflammatory activity in mouse RAW264.7 cells assessed as reduction in LPS-induced NF-kappaB phosphorylation at 2.5 to 10 uM pre-incubated for 1 hrs followed by LPS stimulation and measured after 24 hrs by immunofluorescence staining assay; assay type: functional, cell-based; details: dose 2.5-10 µM, time 25.0 hrs
[9] = test system: RAW264.7; experiment: Antiinflammatory activity in mouse RAW264.7 cells assessed as reduction in LPS-induced p38 phosphorylation at 2.5 to 10 uM pre-incubated for 1 hrs followed by LPS stimulation and measured after 24 hrs by western blotting method; assay type: functional, cell-based; details: dose 2.5-10 µM, time 25.0 hrs, DDE = dose-dependent effect
[10] = test system: RAW264.7; experiment: Antiinflammatory activity in mouse RAW264.7 cells assessed as reduction in LPS-induced ERK phosphorylation at 2.5 to 10 uM pre-incubated for 1 hrs followed by LPS stimulation and measured after 24 hrs by western blotting method; assay type: functional, cell-based; details: dose 2.5-10 µM, time 25.0 hrs, DDE = dose-dependent effect
[11] = test system: RAW264.7; experiment: Antiinflammatory activity in mouse RAW264.7 cells assessed as reduction in LPS-induced JNK phosphorylation at 2.5 to 10 uM pre-incubated for 1 hrs followed by LPS stimulation and measured after 24 hrs by western blotting method; assay type: functional, cell-based; details: dose 2.5-10 µM, time 25.0 hrs, DDE = dose-dependent effect
[12] = Toxicity in LPS-induced sepsis in C57BL/6J mouse model assessed as decrease in ratio of kidney weight to body weight at 7 mg/kg,IG administrated for 72 hrs followed by LPS stimulation and measured after 12 hrs; assay type: organism-based; details: in vivo, po, 84 h
[13] = Toxicity in LPS-induced sepsis in C57BL/6J mouse model assessed as decrease in ratio of kidney weight to body weight at 14 mg/kg,IG administrated for 72 hrs followed by LPS stimulation and measured after 12 hrs; assay type: organism-based; details: in vivo, po, 84 h
[14] = Toxicity in LPS-induced sepsis in C57BL/6J mouse model assessed as decrease in ratio of spleen weight to body weight at 7 mg/kg,IG administrated for 72 hrs followed by LPS stimulation and measured after 12 hrs; assay type: organism-based; details: in vivo, po, 84 h
[15] = Toxicity in LPS-induced sepsis in C57BL/6J mouse model assessed as decrease in ratio of spleen weight to body weight at 14 mg/kg,IG administrated for 72 hrs followed by LPS stimulation and measured after 12 hrs; assay type: organism-based; details: in vivo, po, 84 h
[16] = Toxicity in LPS-induced sepsis in C57BL/6J mouse model assessed as decrease in ratio of heart weight to body weight at 7 mg/kg,IG administrated for 72 hrs followed by LPS stimulation and measured after 12 hrs; assay type: organism-based; details: in vivo, po, 84 h
[17] = Toxicity in LPS-induced sepsis in C57BL/6J mouse model assessed as decrease in ratio of heart weight to body weight at 14 mg/kg,IG administrated for 72 hrs followed by LPS stimulation and measured after 12 hrs; assay type: organism-based; details: in vivo, po, 84 h
[18] = test system: Mus musculus; experiment: Antiinflammatory activity in LPS-induced sepsis in C57BL/6J mouse model assessed as reduction in inflammatory cell infiltration in liver at 7 mg/kg,IG administrated for 72 hrs followed by LPS stimulation and measured after 12 hrs by H and E staining method; assay type: functional, organism-based; details: time 84.0 hrs
[19] = test system: Mus musculus; experiment: Antiinflammatory activity in LPS-induced sepsis in C57BL/6J mouse model assessed as reduction in inflammatory cell infiltration in liver at 14 mg/kg,IG administrated for 72 hrs followed by LPS stimulation and measured after 12 hrs by H and E staining method; assay type: functional, organism-based; details: time 84.0 hrs
[20] = test system: Mus musculus; experiment: Antiinflammatory activity in LPS-induced sepsis in C57BL/6J mouse model assessed as reduction in morphological changes in kidney at 7 mg/kg,IG administrated for 72 hrs followed by LPS stimulation and measured after 12 hrs by H and E staining method; assay type: functional, organism-based; details: time 84.0 hrs
[21] = test system: Mus musculus; experiment: Antiinflammatory activity in LPS-induced sepsis in C57BL/6J mouse model assessed as reduction in morphological changes in kidney at 14 mg/kg,IG administrated for 72 hrs followed by LPS stimulation and measured after 12 hrs by H and E staining method; assay type: functional, organism-based; details: time 84.0 hrs
[22] = test system: Mus musculus; experiment: Antiinflammatory activity in LPS-induced sepsis in C57BL/6J mouse model assessed as reduction in morphological changes in heart at 7 mg/kg,IG administrated for 72 hrs followed by LPS stimulation and measured after 12 hrs by H and E staining method; assay type: functional, organism-based; details: time 84.0 hrs
[23] = test system: Mus musculus; experiment: Antiinflammatory activity in LPS-induced sepsis in C57BL/6J mouse model assessed as reduction in morphological changes in heart at 14 mg/kg,IG administrated for 72 hrs followed by LPS stimulation and measured after 12 hrs by H and E staining method; assay type: functional, organism-based; details: time 84.0 hrs
[24] = test system: Mus musculus; experiment: Antiinflammatory activity in LPS-induced sepsis in C57BL/6J mouse model assessed as reduction in morphological changes in spleen at 7 mg/kg,IG administrated for 72 hrs followed by LPS stimulation and measured after 12 hrs by H and E staining method; assay type: functional, organism-based; details: time 84.0 hrs
[25] = test system: Mus musculus; experiment: Antiinflammatory activity in LPS-induced sepsis in C57BL/6J mouse model assessed as reduction in morphological changes in spleen at 14 mg/kg,IG administrated for 72 hrs followed by LPS stimulation and measured after 12 hrs by H and E staining method; assay type: functional, organism-based; details: time 84.0 hrs
[26] = test system: Mus musculus; experiment: Antiinflammatory activity in LPS-induced sepsis in C57BL/6J mouse model assessed as reduction in serum AST level at 7 mg/kg,IG administrated for 72 hrs followed by LPS stimulation and measured after 12 hrs; assay type: functional, organism-based; details: time 84.0 hrs
[27] = test system: Mus musculus; experiment: Antiinflammatory activity in LPS-induced sepsis in C57BL/6J mouse model assessed as reduction in serum AST level at 14 mg/kg,IG administrated for 72 hrs followed by LPS stimulation and measured after 12 hrs; assay type: functional, organism-based; details: time 84.0 hrs
[28] = test system: Mus musculus; experiment: Antiinflammatory activity in LPS-induced sepsis in C57BL/6J mouse model assessed as reduction in serum Urea nitrogen level at 7 mg/kg,IG administrated for 72 hrs followed by LPS stimulation and measured after 12 hrs; assay type: functional, organism-based; details: time 84.0 hrs
[29] = test system: Mus musculus; experiment: Antiinflammatory activity in LPS-induced sepsis in C57BL/6J mouse model assessed as reduction in serum Urea nitrogen level at 14 mg/kg,IG administrated for 72 hrs followed by LPS stimulation and measured after 12 hrs; assay type: functional, organism-based; details: time 84.0 hrs
[30] = test system: Mus musculus; experiment: Antiinflammatory activity in LPS-induced sepsis in C57BL/6J mouse model assessed as reduction in serum creatinine level at 7 mg/kg,IG administrated for 72 hrs followed by LPS stimulation and measured after 12 hrs; assay type: functional, organism-based; details: time 84.0 hrs
[31] = test system: Mus musculus; experiment: Antiinflammatory activity in LPS-induced sepsis in C57BL/6J mouse model assessed as reduction in serum creatinine level at 14 mg/kg,IG administrated for 72 hrs followed by LPS stimulation and measured after 12 hrs; assay type: functional, organism-based; details: time 84.0 hrs
[32] = test system: Mus musculus; experiment: Antiinflammatory activity in LPS-induced sepsis in C57BL/6J mouse model assessed as reduction in serum LDH level at 7 mg/kg,IG administrated for 72 hrs followed by LPS stimulation and measured after 12 hrs; assay type: functional, organism-based; details: time 84.0 hrs
[33] = test system: Mus musculus; experiment: Antiinflammatory activity in LPS-induced sepsis in C57BL/6J mouse model assessed as reduction in serum LDH level at 14 mg/kg,IG administrated for 72 hrs followed by LPS stimulation and measured after 12 hrs; assay type: functional, organism-based; details: time 84.0 hrs
[34] = test system: Mus musculus; experiment: Antiinflammatory activity in LPS-induced sepsis in C57BL/6J mouse model assessed as reduction in serum HBDH level at 7 mg/kg,IG administrated for 72 hrs followed by LPS stimulation and measured after 12 hrs; assay type: functional, organism-based; details: time 84.0 hrs
[35] = test system: Mus musculus; experiment: Antiinflammatory activity in LPS-induced sepsis in C57BL/6J mouse model assessed as reduction in serum HBDH level at 14 mg/kg,IG administrated for 72 hrs followed by LPS stimulation and measured after 12 hrs; assay type: functional, organism-based; details: time 84.0 hrs

## Cc1csc(N2N=C(c3ccccc3Br)CC2c2ccc(Br)cc2)n1 (centres undefined)
[1]
  inhibition: Active

## Cc1ccc(C2CC(c3ccccc3Br)=NN2c2nc(C)cs2)cc1 (centres undefined)
[1]
  inhibition: Active

## Cc1csc(N2N=C(c3ccc(F)cc3)CC2c2ccc(Br)cc2)n1 (centres undefined)
[1]
  inhibition: Active

## COc1ccc(C2=NN(c3nc(C)cs3)C(c3cc(OC)c(OC)c(OC)c3)C2)cc1 (centres undefined)
[1]
  inhibition: Active

## COc1ccccc1C1=NN(c2nc(C)cs2)C(c2ccc(C)cc2)C1 (centres undefined)
[1]
  inhibition: Active

## COc1ccc(C2=NN(c3nc(C)cs3)C(c3ccc(C)cc3)C2)cc1 (centres undefined)
[1]
  inhibition: Active

## COc1ccccc1C1=NN(c2nc(C)cs2)C(c2ccc(Br)cc2)C1 (centres undefined)
[1]
  inhibition: Active

## COc1ccccc1C1=NN(c2nc(C)cs2)C(c2cc(OC)c(OC)c(OC)c2)C1 (centres undefined)
[1]
  inhibition: Active

## COc1ccc(C2=NN(c3nc(C)cs3)C(c3ccc(Br)cc3)C2)cc1 (centres undefined)
[1]
  inhibition: Active

## COc1ccccc1C1=NN(c2nc(C)cs2)C(c2ccccc2C)C1 (centres undefined)
[1]
  inhibition: Active
[2]
  inhibition: Active
[3]
  Activity: Dde
[4]
  Activity: Dde
[5]
  Activity: Dde
[6]
  Activity: Active
[7]
  Activity: Active
[8]
  Activity: Active
[9]
  Activity: Dde
[10]
  Activity: Dde
[11]
  Activity: Dde
[12]
  Activity: Non-Toxic
[13]
  Activity: Non-Toxic
[14]
  Activity: Non-Toxic
[15]
  Activity: Non-Toxic
[16]
  Activity: Non-Toxic
[17]
  Activity: Non-Toxic
[18]
  Activity: Active
[19]
  Activity: Active
[20]
  Activity: Active
[21]
  Activity: Active
[22]
  Activity: Active
[23]
  Activity: Active
[24]
  Activity: Active
[25]
  Activity: Active
[26]
  Activity: Active
[27]
  Activity: Active
[28]
  Activity: Active
[29]
  Activity: Active
[30]
  Activity: Active
[31]
  Activity: Active
[32]
  Activity: Active
[33]
  Activity: Active
[34]
  Activity: Active
[35]
  Activity: Active
